Publication PMC10951303, “Macroscopic inhibition of DNA damage repair pathways by targeting AP-2α with LEI110 eradicates hepatocellular carcinoma” (Communications Biology, 2024)

Molecular target: T1, AP-2α (TFAP2A) (Homo sapiens, UniProt P05549)
T1 construct: endogenous full-length protein in intact HEP3B cells; western blot read-out
Experiment: cellular thermal shift assay (CETSA), western blot
Type: cell-based
Details: HEP3B cells treated with LEI110 or DMSO for 1 h, then heated 3 min at increasing temperatures

T1 sequence (P05549 whole entry): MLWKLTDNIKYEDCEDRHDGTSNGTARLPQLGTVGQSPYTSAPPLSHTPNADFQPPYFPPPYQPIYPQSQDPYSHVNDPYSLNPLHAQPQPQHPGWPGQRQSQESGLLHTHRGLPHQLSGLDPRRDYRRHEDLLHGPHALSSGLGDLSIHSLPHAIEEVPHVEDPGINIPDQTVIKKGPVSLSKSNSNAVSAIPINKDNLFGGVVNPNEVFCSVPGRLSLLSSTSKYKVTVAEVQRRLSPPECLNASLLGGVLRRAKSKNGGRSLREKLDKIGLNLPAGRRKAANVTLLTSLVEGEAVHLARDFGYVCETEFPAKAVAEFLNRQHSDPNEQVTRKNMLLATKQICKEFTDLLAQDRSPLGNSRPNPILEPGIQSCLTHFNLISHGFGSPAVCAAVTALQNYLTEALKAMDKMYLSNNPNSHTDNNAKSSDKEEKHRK

O=C(CCCc1ccccc1)C(=O)NCCc1ccc(Oc2ccc(C(F)(F)F)cn2)cc1 [LEI110]
cellular thermal shift assay (CETSA), western blot: the stabilization of AP-2α by LEI110 was observed in the CETSA
